# From patent publication US20250163072A1, “MACROCYCLIC COMPOUNDS FOR THE TREATMENT OF CANCER” (Hoffmann-La Roche Inc., priority 2021, published 2025)
# Legend:
# KRAS G12C-BRAF complex = KRAS G12C-BRAF complex (Homo sapiens (Human), UniProt P01116+P62937, G12C); experiment: KRAS-BRAF with CYPA (50 nM) interaction assay (TR-FRET), G12C; type: binding; settings: GMPPNP loaded 6His-KRAS, GST-BRAF RBD
# Summary of the method: (§1)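 Buffer 25 mM HEPES pH 7.4, 100 mM NaCl, 5 mM MgCl2, 10 μM GMPPNP, 0.1% BSA; final 50 nM tagless CYPA, 6.25 nM GMPPNP-loaded 6His-KRAS mutant, 1 nM GST-BRAF RBD. Compounds 16-point 3-fold series from 10 μM, 3 h; anti-6His-XL665/anti-GST-Tb added, 1.5 h; 665/615 nm ratio decrease versus DMSO.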
# SW620 cells = experiment: Cell viability assay, SW620; type: cell-based, human; settings: Homo sapiens, SW-620, SW620, 72 hours, Cell Counting Kit-8, read-out: G12V IC50
# Summary of the method: (§2)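 Cells were plated at 5,000 (NCI-H358) or 2,000 (AGS, SW620) per well and incubated overnight. They were then treated with compound in 0.5% DMSO for 72 h. Viability was read with CCK-8 as OD450 minus OD650 after 2 h, and IC50 came from a 4-parameter sigmoidal fit.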
# KRAS G12D in AGS cells = experiment: pERK inhibition assay, AGS; type: cell-based, human; settings: Homo sapiens, 4 hours incubation
# Summary of the method: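 NCI-H358, AGS and SW620 cells in RPMI-1640/10% FBS were plated overnight, then exposed to compound (0.5% DMSO final) for 4 h. After fixation and permeabilization, phospho-ERK was quantified by in-cell ELISA (HRP secondary, TMB, OD450); IC50 from a 4-parameter sigmoidal fit.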
# AGS cells = experiment: Cell viability assay, AGS; type: cell-based, human; settings: Homo sapiens, 72 hours, Cell Counting Kit-8, read-out: G12D IC50
# Summary of the method: as §2
# [1] = target: KRAS G12D binding to BRAF (Homo sapiens (Human), UniProt P01116+P62937, G12D); experiment: KRAS-BRAF with CYPA (50 nM) interaction assay (TR-FRET), G12D; settings: GMPPNP loaded 6His-KRAS, GST-BRAF RBD
# Summary of the method: as §1
# Sequence of KRAS G12D binding to BRAF (P01116-2 other isoform, or with tags, fused parts or gaps G12D): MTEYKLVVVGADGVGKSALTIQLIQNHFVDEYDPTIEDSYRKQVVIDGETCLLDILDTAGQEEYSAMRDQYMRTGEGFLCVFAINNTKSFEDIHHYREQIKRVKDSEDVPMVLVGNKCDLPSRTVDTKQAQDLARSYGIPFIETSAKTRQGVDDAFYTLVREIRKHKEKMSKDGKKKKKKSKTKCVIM
# Sequence of KRAS G12D binding to BRAF (P62937 whole entry): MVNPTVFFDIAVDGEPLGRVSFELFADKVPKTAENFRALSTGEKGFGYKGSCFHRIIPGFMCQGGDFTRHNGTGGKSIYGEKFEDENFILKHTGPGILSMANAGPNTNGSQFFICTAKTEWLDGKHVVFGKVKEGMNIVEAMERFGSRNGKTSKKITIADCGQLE
# Sequence of KRAS G12C-BRAF complex (P01116-2 other isoform, or with tags, fused parts or gaps G12C): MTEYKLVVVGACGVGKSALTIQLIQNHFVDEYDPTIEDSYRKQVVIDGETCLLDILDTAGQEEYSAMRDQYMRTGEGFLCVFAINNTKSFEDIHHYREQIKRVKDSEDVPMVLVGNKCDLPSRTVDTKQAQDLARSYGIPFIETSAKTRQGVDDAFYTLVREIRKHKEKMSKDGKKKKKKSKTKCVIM
# Sequence of KRAS G12C-BRAF complex (P62937 whole entry): as the sequence (P62937 whole entry) above
structure (smiles),measurement,setting,value
"CO[C@@H](C)c1ncc(N2CCOCC2)cc1-c1c2c3cc(ccc3n1CC(F)(F)F)-c1csc(n1)C[C@H](NC(=O)[C@H](C(C)C)N(C)C(=O)[C@H]1CCN(C(=O)[C@H](F)Cl)C1)C(=O)N1CCC[C@H](N1)C(=O)OCC(C)(C)C2 (atropisomer, axis not shown; (M)) [Example 25, (3S)-1-[(2R)-2-chloro-2-fluoro-acetyl]-N-[(1S)-1-[[(7S,13S)-(20M)-20-[2-[(1S)-1-methoxyethyl]-5-morpholino-3-pyridyl]-17,17-dimethyl-8,14-dioxo-21-(2,2,2-trifluoroethyl)-15-oxa-4-thia-9,21,27,28-tetrazapentacyclo[17.5.2.12,5.19,13.022,26]octacosa-1(25),2,5(28),19,22(26),23-hexaen-7-yl]carbamoyl]-2-methyl-propyl]-N-methyl-pyrrolidine-3-carboxamide]",IC50,KRAS G12C-BRAF complex,32 nM
same,IC50,SW620 cells,6 nM
same,IC50,KRAS G12D in AGS cells,13 nM
same,IC50,AGS cells,94 nM
same,IC50,[1],> 10000 nM
